Columns and labels:
IGF-I = assay: Simulated sustained release study (bolus vs divided oral solution): serum IGF-I; type: in vivo, human; settings: simulated sustained release dosing compared to bolus
Procedure: This dosing regimen simulates active compound delivery by a sustained release dosage form. […] Serum concentrations of growth hormone were monitored just prior to administration of the first dose and every 20 minutes thereafter for 24 hours. Serum […] growth factor-I (IGF-I) concentrations were measured at 0, 12, and 24 hours post-first dose.
The order of treatment was defined by a randomization schedule. Following initial administration, subjects were readmitted to the clinical research facility approximately 14 days later. During the second evaluation, the subject received the treatment not used during the previous session.
IGF-I serum concentrations were determined following administration of the bolus or divided doses. […]
IGF-I quantitation of the human serum samples was conducted using the “DSL-5600A Active™ IGF-I Coated-Tube IRMA (immunoradiometric assay) by Extraction” Kit (Diagnostic Systems Laboratories Inc., Webster, Tex.). […] Lyophilized calibration and validation samples were prepared by the addition of 1 mL of water to the ready-to-use samples. […] This neutralized human serum extract was ready for use in the actual IRMA after having vortexed it briefly. […] The remaining [^125I]radioactivity of all tubes was determined by counting for five minutes using a Canberra-Packard Cobra II™ 5002 ã-counter (Canberra-Packard, Schwadorf, Austria).

rat pituitary cells = assay: Pituitary cell desensitization - growth hormone release assay; type: cell-based; settings: for GH release: treatment 10 nM Compound A 15 min
Procedure: The experiment was designed so that cultures were exposed to a growth hormone secretagogue for 60 min, then growth hormone release was measured during a subsequent 15 min exposure to the same or different growth hormone secretagogue.
Anterior pituitary glands from male Wistar rats (150-175 g, Charles River, Laboratories, Wilmington, Mass.) were collected in Hank's Balanced Salt Solution (#14170, Life Technologies, Gaithersburg, Md.). Glands were minced with a scalpel, then incubated with bacterial protease (Type IX, EC3.4.24.4, #P-6141, Sigma Chemicals, Milwaukee, Wis.) at 10 U/ml to release individual cells. Cells were pelleted by centrifugation at 200×g for 15 min, then suspended in culture medium and plated at a density of 6.0-6.5×10^4 cells per 0.5 ml per well in 48-well tissue culture plates (#3848, Costar Corporation, Cambridge, Mass.). Culture medium consisted of D-MEM (Dulbecco's Modified Eagle Medium) with high glucose and sodium bicarbonate (#11965) supplemented with 10% heat-inactivated horse serum (#26050, Life Technologies, Gaithersburg, Md.), 2.5% fetal bovine serum (#16140, Life Technologies, Gaithersburg, Md.), 0.1 mM MEM non-essential amino acids (#11140, Life Technologies, Gaithersburg, Md.), 100 U/ml nystatin (#15340, Life Technologies, Gaithersburg, Md.) and 50 ug/ml gentamicin sulfate (#15750, Life Technologies, Gaithersburg, Md.). Cultures were maintained for 3-4 days in a humidified, 5% CO2/95% air incubator at 37° C. prior to performing assays for growth hormone release.
For growth hormone release assays, cultures were pre-equilibrated at 37° C. in pre-warmed release medium for 1 h in the presence of a growth hormone secretagogue or excipient (Pretreatment). Release medium consisted of Phenol Red-free D-MEM without bicarbonate (#23800, Life Technologies, Gaithersburg, Md.) supplemented with 25 mM N-[2-hydroxyethyl]piperazine-N′-[2-ethanesulfonic acid] (HEPES), 4.5 g/L glucose, 0.11 g/L sodium pyruvate, 0.584 g/L […] and 0.5% bovine serum albumin (#A-7888, Sigma Chemicals, Milwaukee, Wis.), adjusted to pH 7.4. After pretreatment, the medium was removed and replaced with fresh pre-warmed release medium containing a growth hormone secretagogue or excipient at 0.5 ml/well for 15 min (Treatment). Medium from the Treatment was collected, centrifuged to remove any cells, then assayed for growth hormone content by a conventional double-antibody radioimmunoassay using monkey anti-growth hormone antisera (NIDDK anti-rGH-S-5) and reference rat growth hormone standard (NIDDK-rGH-RP) from Dr. A. F. Parlow, Harbor-UCLA Medical Center, Torrance, Calif. Immune complexes were precipitated using goat anti-monkey immunoglobulin G (#55418, Cappel, Durham, N.C.).
Growth hormone secretagogue solutions were prepared at 1000 times the desired concentration and diluted into pre-warmed release medium immediately before use. Peptides such as His-D-Trp-Ala-Trp-Ala-Trp-D-Phe-Lys-NH2 (GHRP-6, #8061, Peninsula Laboratories, Belmont, Calif.) and rat growth hormone releasing factor (GHRH, #8068, Peninsula Laboratories, Belmont, Calif.) were dissolved at 100 μM in 4 mM acetic acid, 10% ethanol, 0.1% bovine serum albumin; other growth hormone secretagogues were dissolved at 5 mM in dimethyl sulfoxide.

`CN1N=C2CCN(C(=O)[C@@H](COCc3ccccc3)NC(=O)C(C)(C)N)C[C@@]2(Cc2ccccc2)C1=O.O=C(O)C(O)C(O)C(=O)O` [Compound A] was tested, and the “IGF-I serum concentration change from baseline at 24 hours” value (IGF-I) was “increased”, the “growth hormone release response” value (rat pituitary cells; after pretreatment with GHRH) was “stimulation of growth hormone release” and the “growth hormone release response” value (rat pituitary cells; after pretreatment with GHRP-6) was “not”. For the same compound, the GH release (rat pituitary cells; pretreatment 100 nM GHRH 60 min) was 36.99 ± 2.43 ng/mL/15 min, the GH release (rat pituitary cells; pretreatment 100 nM GHRP-6 60 min) was 7.64 ± 1.92 ng/mL/15 min and the GH release (rat pituitary cells; pretreatment none) was 25.17 ± 4.32 ng/mL/15 min.
